Our source for the reduce transmission risk and EC50 values is patent US20260103471A1, “CYCLIC UREA THIAZOLYL COMPOUNDS FOR TREATMENT OF HSV” (Assembly Biosciences, Inc., priority 2022, published 2026).

Read-outs that look alike come from different tables or passages of the source.

In one test the test system is HSV. The following applies: long-term suppressive treatment; cited from earlier work.
Another test concerns HSV-1. Briefly: HSV-1 Antiviral Assay (Vero cells, cell viability). Type of test: cell-based. The following applies: Vero cells, read-out: HSV-1 EC50. The essentials: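 Vero cells (2.5×10^3/well) received 8-point 3-fold compound dilutions in 2% FBS medium (0.5% DMSO), then 80 TCID50 HSV-1. After 4 days at 37 °C, cell viability was measured by CellTiter-Glo luminescence.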
A further test has as its system HSV-2 G strain. Briefly: HSV-2 Antiviral Assay (Vero cells, cell viability). Type of test: cell-based. The following applies: Vero cells, 5 days. The procedure, abridged:
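Antiviral readout is survival of infected Vero cells: after 5 days at 37 °C with 160 TCID50 HSV-2 G strain plus serially diluted compound (8 points, 3-fold, 0.5% DMSO), WST-8 was added for 3 h and absorbance measured at 460/620 nm. Cells seeded at 1.0×10^4 per well.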

Where [1] appears, read: Human alphaherpesvirus 1, 96 h, 80 TCID50 HSV-1, 4 days, cell viability.
Setting [2] is: Human alphaherpesvirus 2, Vero, 120 h, 160 TCID50 HSV-2 G strain, cell viability.

The EC50 is the concentration needed to bring the measured effect to its halfway point.

With `CC(C)[C@H](N)C(=O)OCCOCn1cnc2c(=O)[nH]c(N)nc21` [valacyclovir], the reduce transmission risk in the test with HSV is on record as 46%. As to `Cc1nc(N2CCCN(c3ccc(-c4cc(F)cc5nsnc45)cc3)C2=O)sc1S(N)(=O)=O` [Compound 259], the EC50 in the test on HSV-1 (setting [1]) and in the test on HSV-2 G strain (setting [2]) was < 0.1 µM throughout. With `Cc1nc(N2CC3(CC3)CN(c3ccc(-c4cc(F)ccc4F)cc3)C2=O)sc1S(N)(=O)=O` [Compound 110, 2-(7-(2′,5′-Difluoro-[1,1′-biphenyl]-4-yl)-6-oxo-5,7-diazaspiro [2.5]octan-5-yl)-4-methylthiazole-5-sulfonamide], the EC50 with HSV-1 (setting [1]) and with HSV-2 G strain (setting [2]) was < 0.1 µM each time.

With `Cc1nc(N2CCCN(c3ccc(-c4cccc5ncccc45)cc3)C2=O)sc1S(N)(=O)=O` [Compound 84], the EC50 was 0.1 to 1 µM in the test on HSV-1 (setting [1]) and < 0.1 µM in the test on HSV-2 G strain (setting [2]). With `Cc1nc(N2C[C@H](C#N)CN(c3ccc(-c4cc(F)ccc4F)cc3)C2=O)sc1S(N)(=O)=O` (single isomer, unassigned) [Compound 376], the 50% effective concentration (EC50) with HSV-1 (80 TCID50 HSV-1, 4 days, cell viability) is < 0.1 µM; in the test with HSV-2 G strain (160 TCID50 HSV-2 G strain, cell viability), < 0.1 µM. In the case of `Cc1nc(N2CCCCN(c3ccc(-c4ccccn4)cc3)C2=O)sc1S(N)(=O)=O` [Compound 103], the EC50 in the test on HSV-1 (setting [1]) and in the test with HSV-2 G strain (setting [2]) was < 0.1 µM each time. Regarding `Cc1nc(N2CCN(c3ccc(-c4cc(F)ccc4F)cc3)C2=O)sc1S(N)(=O)=O` [Example 104], the half-maximal effective concentration (EC50) with HSV-1 (Human alphaherpesvirus 1, 96 h, 4 days) is 1.74 µM; in the test on HSV-2 G strain (Human alphaherpesvirus 2, Vero, 120 h), > 2 µM.

`Cc1nc(N2CCCN(c3ccc(-c4ccccc4Cl)cc3)C2=O)sc1S(N)(=O)=O` [Compound 9]: the EC50 in the test on HSV-1 (setting [1]) and with HSV-2 G strain (setting [2]) was < 0.1 µM each time. Turning to `Cc1nc(N2CCCN(c3ccc(-c4cccc(C(F)F)c4)cc3)C2=O)sc1S(N)(=O)=O` [Compound 14], the EC50 in the test on HSV-1 (setting [1]) and in the test on HSV-2 G strain (setting [2]) was < 0.1 µM throughout. Take `Cc1nc(N2CCCN(c3ccc(-c4cc(F)ccc4C(F)F)cc3)C2=O)sc1S(N)(=O)=O` [Compound 194]: the EC50 with HSV-1 (setting [1]) and in the test with HSV-2 G strain (setting [2]) was < 0.1 µM in each case. Consider `Cc1nc(N2CCCN([C@H](C)c3cccc(-c4ccccc4F)c3)C2=O)sc1S(N)(=O)=O` (single isomer, unassigned) [Compound 178], for which the EC50 in the test on HSV-1 (setting [1]) and with HSV-2 G strain (setting [2]) was 1 to 5 µM in each case.

For the molecule `CNS(=O)(=O)c1sc(N2CCCN(c3ccc(-c4ccccn4)cc3)C2=O)nc1C` [Compound 118], the EC50 with HSV-1 (setting [1]) and in the test on HSV-2 G strain (setting [2]) was < 0.1 µM in each case.

For `Cc1nc(N2CCCN(c3cc(F)c(-c4ccccn4)cc3F)C2=O)sc1S(N)(=O)=O` [Compound 98], the EC50 in the test with HSV-1 (setting [1]) and in the test with HSV-2 G strain (setting [2]) was < 0.1 µM each time. `Cc1nc2cccc(-c3ccc(N4CCCN(c5nc(C)c(S(N)(=O)=O)s5)C4=O)cc3)c2s1` [Compound 68]: the EC50 with HSV-1 (setting [1]) and in the test on HSV-2 G strain (setting [2]) was < 0.1 µM in each case.

For `CNS(=O)(=O)c1sc(N2CCCN(Cc3cccc(-c4cc(F)ccc4F)c3)C2=O)nc1C` [Compound 181], the results for the EC50 in the test with HSV-1 (setting [1]) and in the test with HSV-2 G strain (setting [2]) were < 0.1 µM and 0.1 to 1 µM, respectively. Regarding `Cc1nc(N2CCCN(c3ccc(-c4cccc5[nH]c(=O)sc45)cc3)C2=O)sc1S(N)(=O)=O` [Compound 78], the EC50 with HSV-1 (setting [1]) and in the test on HSV-2 G strain (setting [2]) was 0.1 to 1 µM throughout. Take `Cc1nc(N2CCCN(c3ccc(-c4cc(F)cc5ncsc45)cc3)C2=O)sc1S(N)(=O)=O` [Compound 255]: the EC50 in the test on HSV-1 (setting [1]) and in the test on HSV-2 G strain (setting [2]) was < 0.1 µM throughout.

As to `COc1c(F)cc(F)cc1-c1ccc(N2CCCN(c3nc(C)c(S(N)(=O)=O)s3)C2=O)cc1` [Compound 216], the EC50 in the test on HSV-1 (setting [1]) and in the test with HSV-2 G strain (setting [2]) was < 0.1 µM throughout.

Turning to `Cc1nc(N2CCCN(c3ccc(-c4ccc5c(cnn5C)c4)cc3)C2=O)sc1S(N)(=O)=O` [Compound 52], the EC50 in the test on HSV-1 (setting [1]) and in the test on HSV-2 G strain (setting [2]) was 1 to 5 µM throughout. On to `Cc1nc(N2CCCN(c3ccc(-c4cc(F)ccc4F)cc3)C2=O)sc1S(=O)(=O)NCCCO` [Compound 417], for which the EC50 in the test on HSV-1 (setting [1]) and in the test on HSV-2 G strain (setting [2]) was < 0.1 µM in each case. Regarding `CNS(=O)(=O)c1sc(N2CCCN(c3ccc(-c4ccccn4)c(F)c3)C2=O)nc1C` [Compound 128], the EC50 with HSV-1 (setting [1]) and in the test with HSV-2 G strain (setting [2]) was < 0.1 µM each time.
